Results taken from the NIST ThermoML archive (doi:10.1021/acs.jced.5b00251).

Assay: refractive index (other wavelength) (dimensionless); xn = mol fraction of the nth substance listed
Conditions: 101 kPa, Liquid, Standard Abbe refractometry

CC(C)Cc1ccccc1 [(2-methylpropyl)benzene] + CCCCCCCCCCCC
refractive index
Conditions | x1 = 0.1014 | x1 = 0.2024 | x1 = 0.3032 | x1 = 0.4036 | x1 = 0.5038 | x1 = 0.6036 | x1 = 0.7032 | x1 = 0.8024 | x1 = 0.9014
293.15 K, Wavelength=436.1 nm | 1.43714 | 1.44344 | 1.45015 | 1.45682 | 1.46405 | 1.47144 | 1.47917 | 1.48711 | 1.49556
293.15 K, Wavelength=513.9 nm | 1.4307 | 1.4365 | 1.44273 | 1.44889 | 1.45559 | 1.46247 | 1.46959 | 1.47693 | 1.48487
293.15 K, Wavelength=589.3 nm | 1.42708 | 1.4326 | 1.43856 | 1.44443 | 1.45083 | 1.45746 | 1.46421 | 1.47122 | 1.47869
293.15 K, Wavelength=633.2 nm | 1.42554 | 1.43094 | 1.4368 | 1.44255 | 1.44884 | 1.45524 | 1.46196 | 1.46884 | 1.47617
293.15 K, Wavelength=657.2 nm | 1.42541 | 1.43084 | 1.43659 | 1.44269 | 1.44849 | 1.45427 | 1.46085 | 1.46776 | 1.47491
298.15 K, Wavelength=436.1 nm | 1.43491 | 1.44124 | 1.44775 | 1.45454 | 1.46153 | 1.46903 | 1.47676 | 1.48462 | 1.49284
298.15 K, Wavelength=513.9 nm | 1.42851 | 1.43425 | 1.44037 | 1.44665 | 1.45312 | 1.46005 | 1.46722 | 1.4745 | 1.48229
298.15 K, Wavelength=589.3 nm | 1.4249 | 1.43032 | 1.43623 | 1.44221 | 1.44841 | 1.45504 | 1.46188 | 1.46882 | 1.47611
298.15 K, Wavelength=633.2 nm | 1.42337 | 1.42885 | 1.43449 | 1.44035 | 1.44642 | 1.45293 | 1.45965 | 1.46646 | 1.47371
298.15 K, Wavelength=657.2 nm | 1.42267 | 1.42867 | 1.43417 | 1.44009 | 1.44578 | 1.45198 | 1.45863 | 1.46548 | 1.47249
303.15 K, Wavelength=436.1 nm | 1.43262 | 1.43872 | 1.44552 | 1.45204 | 1.45929 | 1.4666 | 1.47424 | 1.48209 | 1.49024
303.15 K, Wavelength=513.9 nm | 1.42624 | 1.43187 | 1.43818 | 1.44421 | 1.45077 | 1.45769 | 1.46477 | 1.47203 | 1.47981
303.15 K, Wavelength=589.3 nm | 1.42267 | 1.42804 | 1.43406 | 1.43981 | 1.44611 | 1.45269 | 1.45946 | 1.46639 | 1.47362
303.15 K, Wavelength=633.2 nm | 1.42115 | 1.42643 | 1.43232 | 1.43796 | 1.44427 | 1.45059 | 1.45721 | 1.46405 | 1.47135
303.15 K, Wavelength=657.2 nm | 1.42052 | 1.42618 | 1.4321 | 1.43801 | 1.44358 | 1.44965 | 1.45625 | 1.46299 | 1.47001
